PubChem BioAssay AID248 (DTP/NCI, 2004)
Several values for one entry are separate records, joined by “and”; a condition that tells them apart may be missing. Equal entries are not always repeated. Toxic doses and inconclusive results are not listed. Rule as the data show it: active = T/C of 150% or more; inactive = T/C below 125%. Square brackets hold non-standard residues; d marks the D form. Peptide text beside a SMILES is read from it. * marks the point of attachment. ξ: configuration not given here. Pentanoyl = CCCCC(=O)*; ξP = O=C(O)C1CCCN1; OtBu = CC(C)(C)O*

System: L1210 leukemia ip in BDF1 mice, survival T/C
Test: NCI In Vivo Anticancer Drug Screen. Data for tumor model L1210 Leukemia (intraperitoneal) in B6D2F1 (BDF1) mice
Details: endpoint: mean survival time, higher = longer survival
Summary of the method: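 Each compound was tested against a transplantable tumor grown in mice. The endpoint was survival, with treated animals benchmarked against vehicle controls as a simple ratio.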

[1] = dose: 100.0 mg/kg/injection, schedule: Q01DX001 (ip), vehicle: carboxymethylcellulose (CMC)
[2] = dose: 200.0 mg/kg/injection, schedule: Q01DX001 (ip), vehicle: carboxymethylcellulose (CMC)
[3] = dose: 400.0 mg/kg/injection, schedule: Q01DX001 (ip), vehicle: carboxymethylcellulose (CMC)
[4] = dose: 50.0 mg/kg/injection, schedule: Q01DX001 (ip), vehicle: saline
[5] = dose: 100.0 mg/kg/injection, schedule: Q01DX001 (ip), vehicle: saline
[6] = dose: 200.0 mg/kg/injection, schedule: Q01DX001 (ip), vehicle: saline
[7] = dose: 400.0 mg/kg/injection, schedule: Q01DX001 (ip), vehicle: saline
[8] = dose: 100.0 mg/kg/injection, schedule: Q01DX001 (ip), vehicle: Klucel (hydroxypropylcellulose) (HPC)
[9] = dose: 200.0 mg/kg/injection, schedule: Q01DX001 (ip), vehicle: Klucel (hydroxypropylcellulose) (HPC)
[10] = dose: 50.0 mg/kg/injection, schedule: Q01DX009 (ip), vehicle: Klucel (hydroxypropylcellulose) (HPC)
[11] = dose: 100.0 mg/kg/injection, schedule: Q01DX009 (ip), vehicle: Klucel (hydroxypropylcellulose) (HPC)
[12] = dose: 100.0 mg/kg/injection, schedule: Q04DX003 (ip), vehicle: Klucel (hydroxypropylcellulose) (HPC)
[13] = dose: 200.0 mg/kg/injection, schedule: Q04DX003 (ip), vehicle: Klucel (hydroxypropylcellulose) (HPC)
[14] = dose: 400.0 mg/kg/injection, schedule: Q04DX003 (ip), vehicle: Klucel (hydroxypropylcellulose) (HPC)
[15] = dose: 50.0 mg/kg/injection, schedule: Q01DX001 (ip), vehicle: carboxymethylcellulose (CMC)
[16] = dose: 200.0 mg/kg/injection, schedule: Q01DX009 (ip), vehicle: Klucel (hydroxypropylcellulose) (HPC)
[17] = dose: 400.0 mg/kg/injection, schedule: Q01DX009 (ip), vehicle: Klucel (hydroxypropylcellulose) (HPC)
[18] = dose: 100.0 mg/kg/injection, schedule: Q04DX003 (ip), vehicle: saline with Tween-80
[19] = dose: 200.0 mg/kg/injection, schedule: Q04DX003 (ip), vehicle: saline with Tween-80
[20] = dose: 400.0 mg/kg/injection, schedule: Q04DX003 (ip), vehicle: saline with Tween-80
[21] = dose: 100.0 mg/kg/injection, schedule: Q01DX009 (ip), vehicle: saline with Tween-80
[22] = dose: 200.0 mg/kg/injection, schedule: Q01DX009 (ip), vehicle: saline with Tween-80
[23] = dose: 400.0 mg/kg/injection, schedule: Q01DX009 (ip), vehicle: saline with Tween-80
[24] = dose: 100.0 mg/kg/injection, schedule: Q04DX002 (ip), vehicle: saline with Tween-80
[25] = dose: 200.0 mg/kg/injection, schedule: Q04DX002 (ip), vehicle: saline with Tween-80

Measured: T/C

CCOC(=O)N/N=C/c1c(F)cccc1Cl
inactive: dose: 75.0 mg/kg/injection, schedule: Q01DX001 (ip), vehicle: carboxymethylcellulose (CMC) 101 % of control | dose: 150.0 mg/kg/injection, schedule: Q01DX001 (ip), vehicle: carboxymethylcellulose (CMC) 106 % of control | dose: 300.0 mg/kg/injection, schedule: Q01DX001 (ip), vehicle: carboxymethylcellulose (CMC) 101 % of control

COc1nc(Cl)nc(Cl)c1Cl (tested in a mixture with another compound)
inactive: dose: 50.0 mg/kg/injection, schedule: Q01DX009 (ip), vehicle: other 87 % of control | dose: 100.0 mg/kg/injection, schedule: Q01DX009 (ip), vehicle: other 102 % of control

NC(=O)c1ccc(F)cc1
inactive: [1] 95 % of control | [2] 104 % of control | [3] 98 % of control

CC(C)(C#N)CCCCC(C)(C)C#N
inactive: [4] 105 % of control | [5] 108 % of control | [6] 102 % of control | [7] 100 % of control

Cc1nn(-c2ccc(Cl)cc2)c(C)c1N=O
inactive: dose: 25.0 mg/kg/injection, schedule: Q01DX001 (ip), vehicle: saline with Tween-80 98 % of control | dose: 50.0 mg/kg/injection, schedule: Q01DX001 (ip), vehicle: saline with Tween-80 95 % of control | dose: 100.0 mg/kg/injection, schedule: Q01DX001 (ip), vehicle: saline with Tween-80 104 % of control

Cc1ccc(O)cc1Cl
inactive: dose: 100.0 mg/kg/injection, schedule: Q01DX009 (ip), vehicle: saline 104 % of control | dose: 100.0 mg/kg/injection, schedule: Q04DX003 (ip), vehicle: saline 95 % of control | dose: 200.0 mg/kg/injection, schedule: Q01DX009 (ip), vehicle: saline 101 % of control | dose: 200.0 mg/kg/injection, schedule: Q04DX003 (ip), vehicle: saline 104 % of control | dose: 400.0 mg/kg/injection, schedule: Q01DX009 (ip), vehicle: saline 95 % of control | dose: 400.0 mg/kg/injection, schedule: Q04DX003 (ip), vehicle: saline 96 % of control

COc1ccc(NC(=O)CC#N)cc1
inactive: [8] 101 % of control | [9] 95 % of control

NNC(=O)c1ccc(Br)cc1
inactive: dose: 25.0 mg/kg/injection, schedule: Q01DX009 (ip), vehicle: Klucel (hydroxypropylcellulose) (HPC) 93 % of control | [10] 96 % of control | [11] 104 % of control | [12] 94 % of control | [13] 103 % of control | [14] 106 % of control

Cc1ccc2c([nH]1)c(C)cc1nc3ccccc3c12
inactive: [15] 103 % of control | [4] 95 % of control | [5] 101 % of control | [2] 95 % of control | [6] 110 % of control | [3] 104 % of control | [7] 101 % of control

COC1OC(COC(c2ccccc2)(c2ccccc2)c2ccccc2)C2SC12 (stereo not drawn)
inactive: [15] 102 % of control | [1] 107 % of control | [2] 100 % of control | [3] 96 % of control

C[N+]1=CN(c2ccc(Cl)cc2)Cc2cc(Cl)ccc21
inactive: [11] 95 % of control | [12] 105 % of control | [16] 106 % of control | [13] 91 % of control | [17] 107 % of control | [14] 93 % of control

CC(=O)N1CSCC1C(=O)O (stereo not drawn)
inactive: [12] 89 % of control | [13] 94 % of control | [14] 91 % of control

c1ccc(C2=Nc3ccccc3NC2c2ccccc2)cc1 (stereo not drawn)
inactive: dose: 50.0 mg/kg/injection, schedule: Q04DX003 (ip), vehicle: Klucel (hydroxypropylcellulose) (HPC) 100 % of control | [12] 89 % of control | [13] 98 % of control

ClCCCC#Cc1ccccc1
inactive: [10] 101 % of control | [8] 90 % of control | [11] 101 % of control | [9] 98 % of control | [16] 110 % of control

COC(=O)C1C=CCC=C1OC (stereo not drawn)
inactive: [18] 96 % of control | [19] 105 % of control | [20] 91 % of control

CC1(C)C(N2CCOCC2)CS1(=O)=O (stereo not drawn)
inactive: dose: 50.0 mg/kg/injection, schedule: Q01DX009 (ip), vehicle: saline with Tween-80 101 % of control | [21] 103 % of control | [18] 94 % of control | [22] 104 % of control | [19] 88 % of control

CC1(c2ccco2)NC(=O)NC1=O (stereo not drawn)
inactive: [11] 94 % of control | [21] 91 % of control | [18] 111 % of control and 101 % of control | [16] 100 % of control | [22] 95 % of control | [19] 104 % of control and 114 % of control | [17] 105 % of control | [23] 98 % of control | [20] 111 % of control and 101 % of control

Cc1ccc(NC(=O)N2CC2(C)C)cc1NC(=O)N1CC1(C)C
inactive: [12] 121 % of control | [13] 116 % of control | dose: 265.0 mg/kg/injection, schedule: Q04DX003 (ip), vehicle: Klucel (hydroxypropylcellulose) (HPC) 120 % of control | [14] 111 % of control | dose: 600.0 mg/kg/injection, schedule: Q04DX003 (ip), vehicle: Klucel (hydroxypropylcellulose) (HPC) 94 % of control

CCCCC(=O)NCC(=O)N1CCCC1C(=O)OC(C)(C)C (stereo not drawn) (Pentanoyl-Gly-[ξP]-OtBu)
inactive: dose: 100.0 mg/kg/injection, schedule: Q04DX002 (ip), vehicle: Klucel (hydroxypropylcellulose) (HPC) 105 % of control | dose: 200.0 mg/kg/injection, schedule: Q04DX002 (ip), vehicle: Klucel (hydroxypropylcellulose) (HPC) 101 % of control | dose: 400.0 mg/kg/injection, schedule: Q04DX002 (ip), vehicle: Klucel (hydroxypropylcellulose) (HPC) 101 % of control

CC(C)(C)NC(=O)Nc1ccc(O)cc1
inactive: [21] 112 % of control and 91 % of control | [24] 94 % of control and 100 % of control | [18] 95 % of control | [22] 100 % of control and 102 % of control | [25] 94 % of control and 100 % of control | [19] 113 % of control | [23] 120 % of control | dose: 400.0 mg/kg/injection, schedule: Q04DX002 (ip), vehicle: saline with Tween-80 100 % of control and 101 % of control | [20] 105 % of control

NC(N)=N/N=C/c1ccccc1C(=O)O
inactive: dose: 62.5 mg/kg/injection, schedule: Q01DX Z (ip), vehicle: saline 106 % of control | dose: 125.0 mg/kg/injection, schedule: Q01DX Z (ip), vehicle: saline 106 % of control | dose: 250.0 mg/kg/injection, schedule: Q01DX Z (ip), vehicle: saline 101 % of control | dose: 500.0 mg/kg/injection, schedule: Q01DX Z (ip), vehicle: saline 100 % of control

COc1ccc2c(c1)C(C)(C)N(C)CC2
inactive: dose: 100.0 mg/kg/injection, schedule: Q04DX003 (ip), vehicle: acetone 104 % of control

CC#N.CC#N.[Cl][Pt][Cl]
inactive: dose: 6.25 mg/kg/injection, schedule: Q04DX003 (ip), vehicle: water 119 % of control | dose: 12.5 mg/kg/injection, schedule: Q04DX003 (ip), vehicle: water 117 % of control | dose: 25.0 mg/kg/injection, schedule: Q04DX003 (ip), vehicle: water 122 % of control | dose: 50.0 mg/kg/injection, schedule: Q04DX003 (ip), vehicle: water 118 % of control

COc1ccccc1NC(=O)Nc1ccc(SC)cc1
inactive: [11] 98 % of control | [12] 91 % of control | [16] 103 % of control | [13] 103 % of control | [17] 97 % of control | [14] 96 % of control

CCC(C#N)C1C=CCCC1 (stereo not drawn)
inactive: dose: 75.0 mg/kg/injection, schedule: Q01DX001 (ip), vehicle: other 107 % of control | dose: 150.0 mg/kg/injection, schedule: Q01DX001 (ip), vehicle: other 107 % of control

Cc1cc2c(cc1C)=NC(=Nc1nc(O)c(O)[nH]1)N=2
inactive: [12] 98 % of control | [13] 96 % of control | [14] 91 % of control

CCCCc1cn(C(=O)CCCl)nn1
inactive: [24] 100 % of control | [25] 100 % of control
